Measurements: patent publication US8741949B2, “Inhibitors of carnitin-palmitoyl-tranferase-1 for the treatment and prevention of disorders caused by delipidation of neural tissue” (Meta-IQ ApS, priority 2008, dated 2014)

Experiments:
Format in all cases: in vivo, rat
[1] = tested on: Male Wistar rats; experiment: Chronic mild stress (CMS) model of depression, sucrose consumption test; conditions: 4 mg/kg etomoxir in oil i.p. daily
Description: For a prolonged period rats are submitted to a succession of mild stressors. Consequently rats enter a depression-like state (anhedoina), however, upon concomitant treatment with antidepressants a fraction of rats recovers over time (Jayatissa et al., 2006). Time point of onset of antidepressant action correlates well to therapeutic action in the clinic and also drug efficacy, measured as a reduction in number of rats resistant to drug treatment, is addressed in the model. Male Wistar rats were purchased from Taconic, Denmark. Animal weight was close to 200 g when adaptation for sucrose consumption was initiated, and approximately 350 g at the start of stress regime. The animals were singly housed, except when grouping was applied as a stress parameter. Food and water was available ad libitum except when food or/and water deprivation was applied as a stress parameter. The standard 12-h light/dark cycle was only changed in course of stress regime. The animals were first trained to consume a palatable sucrose solution (1.5%). The training lasted 5 weeks. In this period the sucrose test was made twice a week during the first 3 weeks and once a week during the last two weeks. […] Percentage well being is calculated as follows: Test=Average Sucrose consumption animals in test group Control=Average Sucrose used animal control group Percentage well being=(Test/control)×100%

[2] = tested on: Male Wistar rats; experiment: Y-maze short term memory test (spontaneous alternation), MK-801 induced memory loss
Method: (§1) Male Wistar rats were purchased from Taconic, Denmark. Animal weight was close to 300 g. The animals were singly housed. Food and water was available ad libitum.
Spontaneous alternation. A Y-maze was used to assess (without food deprivation or other aversive procedures) the normal navigation behaviors of rodents. All arm entries are sequentially scored so that the total number of arm entries, as well as the sequence of entries, are recorded. Data are analyzed to determine the number of arm entries without repetition.
On the day of testing, the rats are given subcutaneous injection of either vehicle (n=9), 0.1 mg/kg MK-801 (n=8) or 0.1 mg/kg MK-801 (also known as Dizocilpine) and the CPT-1 inhibitor Etomoxir 1 mg/kg (1 mg/ml etomoxir ester dilution in olive oil, n=5) 1 hour before the testing (to avoid the MK-801 induced hyperactivity).

[3] = tested on: Male Wistar rats; experiment: Passive avoidance test (long term memory), MK-801 induced memory loss; conditions: retention test 24 h later
Description: as §1
In order to test long term memory, a passive avoidance apparatus was used. The passive avoidance apparatus consist of 2 compartments: a white compartment and a black compartment, which are separated by guillotine doors. There is a lamp hanging 10 cm above the white compartment and there is a lid covering the black compartment. The black compartment contains a stainless steel grid floor.
The test was performed in the lab where the rats normally live, and all the rats were present in the room all the time during the experiment. The apparatus was placed a little bit above the floor on 2 cages. The electrical current strength was adjusted to 0.36 mA and the duration was 5 sec. […] All the rats are weighted one day before the experiment, the concentration of MK-801 per mean body weight is calculated and the dilutions are prepared
The rats are given subcutaneous injection of either vehicle (n=4), 0.1 mg/kg MK-801 (n=8) or 0.1 mg/kg MK-801 and etomoxir 1 mg/kg (1 mg/ml etomoxir ester dilution in olive oil, n=10) 1 hour before the training (to avoid the MK-801 induced hyperactivity). […] After 20 sec the doors are lifted and the time to enter the black compartment is measured. […]

| SMILES | animals responding to the treatment (at least 90% of pre-stress sucrose consumption) ([1]; stressed rats n=20, FIG. 6) | time of treatment until animals responded like normal non-depressed animals (percentage well being, sucrose consumption) ([1]; stressed rats, earliest time point measured, FIG. 5) [week] | Y-maze scores of the animals with nearly perfect memory ([2]; Etomoxir 1 mg/kg s.c. with 0.1 mg/kg MK-801, 1 hour before testing) | animals with nearly perfect memory ([2]; Etomoxir 1 mg/kg s.c. with 0.1 mg/kg MK-801, 1 hour before testing, n=5) | effect on the induced loss of short term memory ([2]; one subcutaneous injection, Etomoxir 1 mg/kg with 0.1 mg/kg MK-801, 1 hour before testing, FIG. 2) | animals with restored long term memory ([3]; one subcutaneous injection, etomoxir 1 mg/kg with 0.1 mg/kg MK-801, 1 hour before training, n=10, FIG. 3) [%] | highest Y-maze score in the group ([2]; 0.1 mg/kg MK-801 + vehicle s.c., 1 hour before testing, n=8) [%] | animals with measurable long term memory ([3]; 0.1 mg/kg MK-801 s.c. 1 hour before training, n=8) |
| --- | --- | --- | --- | --- | --- | --- | --- | --- |
| CCOC(=O)C1(CCCCCCOc2ccc(Cl)cc2)CO1 (centres unmarked) [Etomoxir, 2-(6-(4-chlorophenoxy)hexyl)oxirane-2-carboxylic acid ethyl ester] | about 70% | ≤ 1 | 92-100% | Sixty | restore the loss of short term memory | 40 | – | – |
| C[C@]12N[C@H](Cc3ccccc31)c1ccccc12 [MK-801] | – | – | – | – | – | – | 66 | None |
